Experimental findings from patent US8536187B2 (Gilead Sciences, Inc., priority 2008, dated 2013) are described below.

The nature of data set [1]: CC50 assay (CellTiter-Glo) in Huh-7 HCV replicon cells. The data set is classed as cell-based. To be noted: human. As for the experimental part: (§1) The anti-HCV activity of the pyrido[3,2-d]pyrimidine derivatives of this invention was tested in a human hepatoma Huh-7 cell line harboring a HCV replicon. The assay comprised the following steps: • Step 1: compound preparation and serial dilution: serial dilution is performed in 50% DMSO in a 384-well plate. A solution containing a compound at 100-fold concentration of the starting final serial dilution concentration was prepared in 50% DMSO and added to the pre-specified wells in column 1 of a polypropylene 384-well plate. The plate was then placed on a Precision 2000 Workstation to start the serial dilution. After the serial dilution, a volume of 2 μL of the solution was transferred from the 384-well plate to a 96-well cell culture plate containing 100 μL of cell media on a Biomek FX Workstation. The DMSO concentration in the final assay condition was 0.5% after cells are added to the plate and the total volume in each well is brought to 200 μL. • Step 2: to each well of the serial dilution plate prepared above, 100 μL of cell media containing 6000 suspended Huh-7 HCV replicon cells was added with a Multidrop workstation. The plates were incubated for 3 days at 37° C. with 5% CO2. • Step 3: detection: • a) for the EC50 assay, the media in a 96-well cell culture plate was aspirated with a Biotek EL405 plate-washer. A volume of 200 μL of a solution containing a 1:1 mixture of cell-lysis buffer (Promega, Luciferase Cell Culture Lysis 5× Reagent, cat. #E1531) and luciferase substrate solution (Promega, Luciferase Assay, cat.# E4550) was added to each well of the plate with Multidrop. The plate was incubated for 30 minutes at room temperature before the luminescence signal was measured with a TopCount plate-reader. • b) for the CC50 assay, a volume of 100 μL of pre-mixed CellTiter-Glo (Promega, cat.# G7572) solution is added directly to the cell culture in each well of the plate and the luminescence signal is measured with a TopCount plate-reader after 10 minutes of incubation at room temperature.

The test system of data set [2] is HCV replicon in human hepatoma Huh-7 cell line. In words: Anti-HCV replicon assay, EC50 (luciferase luminescence). The data set is classed as cell-based. To be noted: Hepatitis C virus, Huh-7, 72 h. How it is done:
as §1

By CC50 is commonly meant the concentration that lowers cell viability or growth by half. Read a low CC50 as harm at low concentration. Broadly, the EC50 is the midpoint of the concentration-response curve. Higher therefore signals a need for much substance. On to `CC1(Oc2nc(NCc3ccc(-n4cncn4)cc3)nc3ccc(-c4cnc(OC5CC5)nc4)nc23)CC1` [Example 257, N-(4-(1H-1,2,4-triazol-1-yl)benzyl)-6-(2-cyclopropoxy-pyrimidin-5-yl)-4-(1-methyl-cyclopropoxy)pyrido[3,2-d] pyrimidin-2-amine], for which the CC50 at 3 days in data set [1] (Table 2, 3 days incubation) was in the range of 1 to 10 µM. The EC50 in data set [2] is less than 0.1 µM.
The matching figures for `C[C@@H](Nc1nc(NCC(F)(F)F)c2nc(-c3cncc(S(C)(=O)=O)c3)ccc2n1)c1ccc(S(N)(=O)=O)cc1` [Example 156, 4-((R)-1-(6-(5-(methylsulfonyl)pyridin-3-yl)-4-(2,2,2-trifluoroethylamino)pyrido [3,2-d]pyrimidin-2-ylamino)ethyl)benzenesulfonamide]: more than 10 µM and 0.25 to 2 µM.
In data set [1] (Table 2, 3 days incubation), `C#Cc1ccc2nc(N[C@H](C)c3ccc(S(N)(=O)=O)cc3)nc(OC3CCC3)c2n1` [Example 307, (R)-4-(1-(4-cyclobutoxy-6-ethynylpyrido[3,2-d]pyrimidin-2-ylamino)ethyl)benzene-sulfonamide] registered a CC50 at 3 days of 1 to 10 µM. The compound also displayed an EC50 in data set [2] of 0.25 to 2 µM.
The like results for `[2H]C([2H])([2H])C([2H])([2H])Oc1ccc(-c2ccc3nc(NCc4ccc(-n5cncn5)cc4)nc(NCC(F)(F)F)c3n2)cn1` [Example 256, N^2-(4-(1H-1,2,4-triazol-1-yl)benzyl)-6-(6-pentadeutero-ethoxypyridin-3-yl)-N^4-(2,2,2-trifluoroethyl)pyrido[3,2-d] pyrimidine-2,4-diamine] were, in that order, more than 10 µM and less than 0.1 µM.
The like results for `NS(=O)(=O)c1cc(Cl)cc(CNc2nc(NC3(C(F)(F)F)CC3)c3nc(C#CC4CC4)ccc3n2)c1` [Example 91, 3-chloro-5-((6-(2-cyclopropylethynyl)-4-(1-(trifluoromethyl)cyclopropyl-amino)pyrido[3,2-d]pyrimidin-2-ylamino)methyl)benzene-sulfonamide] were, in that order, more than 10 µM and less than 0.1 µM.
For the compound `NS(=O)(=O)c1ccc(CNc2nc(OC3CC3)c3nc(C#CC4CC4)ccc3n2)cc1` [Example 286, 4-((4-cyclopropoxy-6-(2-cyclopropylethynyl)pyrido [3,2-d]pyrimidin-2-ylamino)methyl)benzenesulfonamide], the CC50 at 3 days in data set [1] (Table 2, 3 days incubation) is more than 10 µM. Moreover, the EC50 in data set [2] was 0.1 to 0.25 µM.
`NS(=O)(=O)c1cc(Cl)cc(CNc2nc(NC3(C(F)(F)F)CC3)c3nc(-c4ccc(N5CNCC5=O)cc4)ccc3n2)c1` [Example 45, 3-chloro-5-((6-(4-(5-oxoimidazolidin-1-yl)phenyl)-4-(1-(trifluoromethyl)cyclopropylamino)pyrido [3,2-d]pyrimidin-2-ylamino)methyl)benzenesulfonamide] showed a CC50 at 3 days in data set [1] (Table 2, 3 days incubation) of 1 to 10 µM. In addition, in data set [2], the concentration giving a half-maximal response (EC50) is less than 0.1 µM.
Take `C[C@@H](Nc1nc(NCC(F)(F)F)c2nc(-c3cccc(S(C)(=O)=O)c3)ccc2n1)c1ccc(-n2cncn2)cc1` [Example 170, N^2-((R)-1-(4-(1H-1,2,4-triazol 1-yl)phenyl)ethyl)-6-(3-(methylsulfonyl)phenyl)-N^4-(2,2,2-trifluoroethyl)pyrido [3,2-d]pyrimidine-2,4-diamine]: the CC50 at 3 days in data set [1] (Table 2, 3 days incubation) lay within 1 to 10 µM. This compound also came in with an EC50 in data set [2] of less than 0.1 µM.
The like results for `COc1ccc(-c2ccc3nc(NCc4ccc(S(N)(=O)=O)cc4)nc(NC4(C#N)CC4)c3n2)cn1` [Example 132, 4-((4-(1-cyanocyclopropylamino)-6-(6-methoxypyridin-3-yl)pyrido[3,2-d]pyrimidin-2-ylamino)methyl)benzene-sulfonamide] were, in that order, more than 10 µM and less than 0.1 µM.
The matching figures for `COc1ccc(-c2ccc3nc(N[C@H](C)c4ccc(-n5cncn5)cc4)nc(NCC(F)(F)F)c3n2)cc1S(C)(=O)=O` [Example 150, N^2-((R)-1-(4-(1H-1,2,4-triazol-1-yl)phenyl)ethyl)-6-(4-methoxy-3-(methylsulfonyl)phenyl)-N^4-(2,2,2-trifluoroethyl) pyrido[3,2-d]pyrimidine-2,4-diamine]: 1 to 10 µM and less than 0.1 µM.
The like results for `CS(=O)(=O)Nc1cncc(CNc2nc(NC3(C(F)(F)F)CC3)c3nc(-c4ccc(F)cc4)ccc3n2)c1` [Example 134, N-(5-((6-(4-fluorophenyl)-4-(1-(trifluoromethyl)cyclopropyl-amino)pyrido[3,2-d]pyrimidin-2-ylamino)methyl)pyridin-3-yl)methanesulfonamide] were, in that order, more than 10 µM and 0.25 to 2 µM.
Take `Nc1ccc(-c2ccc3nc(NCc4ccc(-n5cncn5)cc4)nc(NC4(C(F)(F)F)CC4)c3n2)cn1` [Example 112, N^2-(4-(1H-1,2,4-triazol-1-yl)benzyl)-6-(6-aminopyridin-3-yl)-N^4-(1-(trifluoromethyl)cyclopropyl)pyrido[3,2-d] pyrimidine-2,4-diamine]: in data set [1] (Table 2, 3 days incubation), the cytotoxic concentration (CC50) at 3 days lay within 1 to 10 µM. Besides, the EC50 in data set [2] is less than 0.1 µM.
The matching figures for `COc1ccc(-c2ccc3nc(NCc4cccc(S(N)(=O)=O)c4)nc(NCC(F)(F)F)c3n2)cc1S(C)(=O)=O` [Example 144, 3-((6-(4-methoxy-3-(methylsulfonyl)phenyl)-4-(2,2,2-trifluoroethylamino)pyrido[3,2-d]pyrimidin-2-ylamino)methyl)benzene-sulfonamide]: 1 to 10 µM and less than 0.1 µM.
The matching figures for `CCOc1ccc(-c2ccc3nc(NCc4ccc(-n5cncn5)cc4)nc(NC4(C(F)(F)F)CC4)c3n2)cn1` [Example 52, N^2-(4-(1H-1,2,4-triazol-1-yl)benzyl)-6-(6-ethoxypyridin-3-yl)-N^4-(1-(trifluoromethyl)cyclopropyl)pyrido[3,2-d] pyrimidine-2,4-diamine]: 1 to 10 µM and less than 0.1 µM.
Compound `Fc1ccc(-c2ccc3nc(NCc4ccc(-n5cncn5)cc4)nc(NC4(C(F)(F)F)CC4)c3n2)cc1` [Example 81, N^2-(4-(1H-1,2,4-triazol-1-yl)benzyl)-6-(4-fluorophenyl)-N^4-(1-(trifluoromethyl)cyclopropyl)pyrido[3,2-d] pyrimidine-2,4-diamine] registered a CC50 at 3 days in data set [1] (Table 2, 3 days incubation) of 1 to 10 µM. For the same compound, in data set [2], the EC50 lay within 0.25 to 2 µM.
`Cc1nc(C)n(-c2ccc(CNc3nc(OC4(C)CC4)c4nc(-c5cccc(S(C)(=O)=O)c5)ccc4n3)cc2)n1` [Example 203, N-(4-(3,5-dimethyl-1H-1,2,4-triazol-1-yl)benzyl)-4-(1-methylcyclopropoxy)-6-(3-(methylsulfonyl)phenyl)pyrido [3,2-d]pyrimidin-2-amine] came in with a CC50 at 3 days in data set [1] (Table 2, 3 days incubation) of more than 10 µM. In data set [2], this compound showed an EC50 of less than 0.1 µM.
The matching figures for `COc1ccc(-c2ccc3nc(NC(C)c4ccc(-n5cncn5)cc4)nc(NC4(C(F)(F)F)CC4)c3n2)cc1S(C)(=O)=O` (stereo not shown) [Example 97, N^2-(1-(4-(1H-1,2,4-triazol-1-yl)phenyl)ethyl)-6-(4-methoxy-3-(methylsulfonyl)phenyl)-N^4-(1-(trifluoromethyl)cyclopropyl)pyrido[3,2-d] pyrimidine-2,4-diamine]: more than 10 µM and less than 0.1 µM.
As to `COc1ccc(-c2ccc3nc(NCc4ccc(-n5cccn5)cc4)nc(NCC(F)(F)F)c3n2)cc1S(N)(=O)=O` [Example 236, 5-(2-(4-(1H-pyrazol-1-yl)benzylamino)-4-(2,2,2-trifluoroethylamino)pyrido [3,2-d]pyrimidin-6-yl)-2-methoxybenzenesulfonamide], the half-maximal cytotoxic concentration (CC50) at 3 days in data set [1] (Table 2, 3 days incubation) lay in the range of 1 to 10 µM. In data set [2], this compound had an EC50 of less than 0.1 µM.
The like results for `CCS(=O)(=O)c1cccc(-c2ccc3nc(N[C@H](C)c4ccc(-n5cncn5)cc4)nc(NCC(F)(F)F)c3n2)c1` [Example 182, N^2-((R)-1-(4-(1H-1,2,4-triazol-1-yl)phenyl)ethyl)-6-(3-(ethylsulfonyl)phenyl)-N^4-(2,2,2-trifluoroethyl)pyrido [3,2-d]pyrimidine-2,4-diamine] were, in that order, 1 to 10 µM and less than 0.1 µM.
`C#Cc1ccc2nc(N[C@H](C)c3ccc(S(N)(=O)=O)cc3)nc(OC3CC3)c2n1` [Example 294, (R)-4-(1-(4-cyclopropoxy-6-ethynylpyrido[3,2-d]pyrimidin-2-ylamino)ethyl)benzene-sulfonamide] registered a CC50 at 3 days in data set [1] (Table 2, 3 days incubation) of 1 to 10 µM. In data set [2], this compound came in with an EC50 of less than 0.1 µM.
Take `Cc1cc(S(N)(=O)=O)ccc1CNc1nc(NCC(F)(F)F)c2nc(-c3ccc(F)cc3)ccc2n1` [Example 4, 4-{[6-(4-Fluoro-phenyl)-4-(2,2,2-trifluoro-ethylamino)-pyrido[3,2-d]pyrimidin-2-ylamino]-methyl}-3-methyl-benzenesulfonamide]: the CC50 at 3 days in data set [1] (Table 1, 3 days incubation) was more than 25 µM. In data set [2], this compound had an EC50 of 0.25 to 2 µM.
For `COc1ccc(-c2ccc3nc(NCc4ccc(S(N)(=O)=O)cc4)nc(NCC(F)(F)F)c3n2)cc1C(N)=O` [Example 226, 4-((6-(3-(aminocarbonyl)l-4-methoxyphenyl)-4-(2,2,2-trifluoroethylamino)pyrido [3,2-d]pyrimidin-2-ylamino)methyl)benzene-sulfonamide], in data set [2], the EC50 is less than 0.1 µM.
